Data on 38 compounds can be found in PubChem BioAssay AID850 (SRMLSC, 2007).

Each structure is given as a SMILES string. The source made the active and inactive calls. The rule behind the calls is not given here.

Test [1] in a line: concentration-response yeast growth inhibition under permissive conditions, counter-assay for yeast lifespan-shortening chemical project (AID 850).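 Note: growth read as optical density after one day of incubation.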 The note with it: Saccharomyces cerevisiae growth inhibition, permissive control, measured here: maximum growth inhibition, stronger effect = higher value.
The subject of test [2] is Saccharomyces cerevisiae growth inhibition, permissive control. Described as above.

A word on the inhibition: it is the percentage by which the read-out fell short of the control. What is called IC50 is the concentration needed to halve the response being measured. For the compound `Cc1ccc2nc3c(nc2c1)-c1ccccc1C3=O`, in test [1] (at 50 µM), the inhibition was 17%. Besides, the IC50 in test [2] was > 100 µM (inactive).
For `Cc1c(C(=O)O)cccc1-c1ccc(/C=N/Nc2ccc(Br)cc2)o1`, the inhibition in test [1] (at 50 µM) is 95.6%. Besides, the IC50 in test [2] was 13.1 µM.
In test [1] (at 25 µM), `CCOC(=O)C1CCCCN1C(=O)CCc1c(C)nc2cc(-c3ccccc3)nn2c1C` (stereo not given) registered an inhibition of 21.6%. Also, the IC50 in test [2] is > 100 µM (inactive).
With `O=C(OCn1ncc(Cl)c(Cl)c1=O)c1ccccc1Cl`, the inhibition in test [1] (at 50 µM) worked out at 54.5%.
The compound `COc1ccccc1N1CCN(C(CNC(=O)c2ccco2)c2cccnc2)CC1` (stereo not given) yielded an inhibition in test [1] (at 50 µM) of 18.3%. For the same compound, in test [2], the IC50 is > 100 µM (inactive).
In the same order, the values of `Cc1nc(Nc2ccc(Cl)c(Cl)c2)sc1C(=O)Nc1ccccc1` are 15.6% and > 100 µM (inactive).
Regarding `C=CCSc1nnc2nc3c(nn12)c1cc(C)ccc1n3CC=C`, the inhibition in test [1] (at 25 µM) is 16.6%. Further, the IC50 in test [2] is > 100 µM (inactive).
For `CC(Nc1ccc(Br)cn1)c1cc(Cl)ccc1O` (stereo not given), in test [1] (at 0.781 µM), the inhibition came out at 12.8%. In test [2], the IC50 was > 100 µM (inactive).
In turn, `CCOC(=O)c1c(-c2ccc(-c3ccccc3)cc2)csc1NC(=O)CCN1CCOCC1` returned an inhibition in test [1] (at 50 µM) of 94.6%. The 50% inhibitory concentration (IC50) in test [2] was 15.5 µM.
Take `O=c1oc2ccccc2c(N2CCCC2)c1CN1CCCC1`: the inhibition in test [1] (at 12.5 µM) came out at 11.7%. Further, the IC50 in test [2] is > 100 µM (inactive).
For `O=Cc1c(Sc2ccccc2)nc2ccccn2c1=O` the same measures were 2.01% and > 100 µM (inactive).
In turn, `CCc1ccc2c(c1)C1(NN=C(c3cccc4ccccc34)S1)C(=O)N2` (stereo not given) gave an inhibition in test [1] (at 50 µM) of 32.3%.
In test [1] (at 50 µM), `Cc1ccc(NC(=O)ON=C2CCCC2)cc1` yielded an inhibition of 99.4%. In addition, in test [2], the 50% inhibitory concentration (IC50) is 15.2 µM.
As to `N/C(=N\OC(=O)c1ccc(Cl)cc1Cl)c1ccccc1`, the inhibition in test [1] (at 12.5 µM) is 32.3%.
Turning to `Nc1nonc1C(=O)NCCN=Cc1cc(Cc2ccccc2)cc(Br)c1O`, in test [1] (at 50 µM), the inhibition is 22.4%. In addition, the IC50 in test [2] is > 100 µM (inactive).
In the case of `Cc1cccc(Nc2nc(-c3ccccn3)cs2)n1`, the inhibition in test [1] (at 25 µM) is 63.1%. Also, in test [2], the IC50 is 13.3 µM.
In the case of `O=C(OCn1ncc(Cl)c(Cl)c1=O)c1ccc(F)cc1`, in test [1] (at 50 µM), the inhibition was 23%. Besides, in test [2], the IC50 is > 100 µM (inactive).
For the compound `O=C(CCc1ccccc1)NNC(=S)NC(=O)c1ccccc1`, the inhibition in test [1] (at 12.5 µM) stood at 22.5%. Besides, the IC50 in test [2] is > 100 µM (inactive).
The compound `O=c1[nH][nH]cc1C=Nc1ccccc1O` displayed an inhibition in test [1] (at 1.563 µM) of 12.5%. The IC50 in test [2] was > 100 µM (inactive).
In turn, `CC(Sc1cccc[n+]1[O-])C(=O)Nc1cccc(S(=O)(=O)N2CCOCC2)c1` (stereo not given) gave an inhibition in test [1] (at 50 µM) of 99.8%. In addition, in test [2], the IC50 was 8.22 µM.
Consider `O=C1c2ccccc2C(=O)C1c1ccc2ccccc2n1`, for which the inhibition in test [1] (at 25 µM) amounted to 30.6%.
Compound `CCCOC(=O)c1ccc(Oc2cn[nH]c2-c2ccc(OCC)cc2O)cc1` had an inhibition in test [1] (at 3.125 µM) of 34.6%.
In test [1] (at 50 µM), `Cn1c(=O)c2nc(-c3ccccc3)oc2c2ccccc21` returned an inhibition of 38.2%.
Still for that read-out and setting: under `Cc1ccc(O)c(C(=O)CC(=O)c2cccc(F)c2)c1` stands 44.8%.
On to `O=c1c2ccccc2nc2sc3ccccc3n12`, for which the inhibition in test [1] (at 50 µM) was 38.4%.
On the same count and under the same terms, under `COc1cccc(/C=N/N2C(=O)CSC2=S)c1O` stands 34.1%; under `Cc1nn(-c2ccccc2)c2sc(-c3n[nH]c(=S)o3)cc12`, 36.1%; under `CCOc1ccc(NCc2nc3ccccc3n2CCOc2ccccc2)cc1`, 30.3%.
`CC(=O)N1N=C(c2ccc(Cl)cc2)OC1(C)C` registered an inhibition in test [1] (at 3.125 µM) of 41%.
In test [1] (at 50 µM), `COc1cc(/C=C2/C(=O)ON=C2c2ccccc2)ccc1O` gave an inhibition of 45.6%.
The same measure, in the same setting: under `O=[N+]([O-])c1ccc(C2Oc3ccccc3C3CC(c4ccccc4)=NN32)s1` (stereo not given) stands 45%; under `CCOc1ccc(/C=C/[N+](=O)[O-])c2ccccc12`, 33.5%.
Compound `CCCOC(=O)c1ccc(Oc2cn[nH]c2-c2ccc(OC)cc2O)cc1` displayed an inhibition in test [1] (at 50 µM) of 32.4%.
On the same count and under the same terms, under `O=[N+]([O-])c1ccc(N=Nc2ccc(O)cc2O)cc1` stands 36.3%.
In the case of `Cc1cccc(Cn2ncc(Cl)c(Cl)c2=O)c1`, in test [1] (at 50 µM), the inhibition worked out at 31.1%.
The same measure, in the same setting: under `NNC(=O)c1cccc(COc2ccc(Br)cc2)c1` stands 54.5%.
For `Nc1cccc2nc3ccccc3cc12`, the inhibition in test [1] (at 25 µM) was determined as 38.6%.
As for `COc1ccc2nc(NC(=S)N(C)C)sc2c1`, in test [1] (at 12.5 µM), the inhibition came to 35%.
